# Bridge positions count the residues as written; N and C are the ends. Square brackets hold non-standard residues; d marks the D form. Peptide text beside a SMILES is read from it. * marks the point of attachment. X1 = CC[C@H](C)CCCCC(=O)*; Dab = NCC[C@H](N)C(=O)O
# Experiments:
# [1] = test system: S. aureus WT; type: cell-based
# Experimental: (§1) Bacterial strains and plasmids are listed in SI Table S5. LB growth media was prepared according to manufacturer’s instructions and supplemented with 0.2% arabinose and carbenicillin (50 μg/mL) for the strains containing pBAD24-mcr1 plasmid. Cultures were started by inoculating 3 ml LB with 1–2 colonies from fresh overnight plates and grown at 37 °C until in log phase. Modified minimal inhibitory concentration (MIC) assays were performed in 96-well round bottom polystyrene plates (Corning) with a final volume of 100 µl in LB supplemented with tween-80 at 0.0005%. […] Polymyxin B sulfate (TCI Co. Ltd), polymyxin B nonapeptide (PMBN) (Sigma), and brevicidine (Genentech) were diluted directly in the assay plates. Bacteria were diluted in LB with tween-80 0.0005% and added to a final OD600 of 0.0005. Growth was measured via OD600 on a SpectraMax M5 plate reader after overnight static growth at 37 °C with humidity.
# [2] = test system: wt-OMVs; experiment: Three-state model fit to SPR titration, wt-OMVs; type: binding, E. coli
# Source text: To estimate binding constants, the three-state model was fit to binding curve titrations (Fig. 5A, B, and Table 2). Briefly, the SPR response curves of polymyxin B binding wt-OMVs (Fig. 5A) or resistant OMVs (Fig. 5B) were globally fit to Eqn. (1) by non-linear regression coupled to numerical integration of the associated ordinary differential equations (see Supplementary Information Section 2A), which define the time-dependent concentrations of each species.1 Response(t)=([PMBL]t+[nPMBL]t+2*[tPMB]t+m.[cPMB]t).MW.G.
# Section 2A - Formulation of three-state model for fitting SPR data
# The three-state model (Fig. 4) was formulated as a set of coupled ordinary differential equations (ODEs), with eight binding rate constants (k1-8) governing the rates of interchange of each species.
# Forward rate constants k7 and k9 were eliminated from the equation set as formation of transient species tPMB and LL are irreversible.
# Time at Injection 1 start = 0 s
# Sample contact time = 30 s
# Dissociation time interval = 35 s
# Mass transport rate = kt = 46.5 1/s
# Initial Species Concentrations
# Coupled ODEs of Three-State Model d[L]/dt = -(k1.[PMB].[L] - k2.[PMBL])+2*k10.[LL] (S8) d[PMB]/dt = -(k1.[PMB].[L] - k2.[PMBL]) + kt’.([PMBi](t) –[PMB]) (S9) d[PMBL]/dt = (k1.[PMB]*[L] - k2.[PMBL])-(k3.[PMBL].[n] - k4.[nPMBL] ) (S10) d[n]/dt = -(k3.[PMBL].[n] - k4.[nPMBL] ) (S11) d[nPMBL]/dt = (k3.[PMBL].[n] - k4.[nPMBL])-2.(k5.[nPMBL].[nPMBL] - k6.[tPMB].[LL] ) (S12) d[tPMB]/dt = (k5.[nPMBL].[nPMBL] - k6.[tPMB].[LL] ) – k8.[tPMB] (S13) d[cPMB]/dt = 2*k8.[tPMB] (S14) d[LL]/dt = (k5.[nPMBL].[nPMBL] – k6.[tPMB].[LL]) – k10.[LL] (S15)
# The initial concentrations of each species were as follows
# [PMB]t=0 = [PMBL]t=0 = [nPMBL]t=0 = [tPMB]t=0 = [LL]t=0 = [cPMB]t=0 = 0 [L]t=0 = [n]t=0 = 1.56 x 10-4 (units, M) kt’ (units, m/s) was already defined in SI Section 1A. [PMBi](t) is the injected concentration profile and [PMB]t is the concentration profile at the sensing surface. [PMBi](t) follows a serial-doubling concentration of injected analyte, with a concentration profile defined by a serial step function, where each injection step represents a discrete concentration followed by a dissociation step without injected analyte and this is repeated for each concentration in the SCK dosing series.
# Kintek Explorer V9.5 was used to build and fit the three-state model. This program employs its own numerical integrator9, which reports the change in concentration of each species over time.
# The SPR responses for concentrations of each accumulating PMB-species estimated from Eqn (8 - 15) are summed over time in Eqn (1), repeated here.
# Response(t) = ([PMBL]t+[nPMBL]t+2*[tPMB]t+m.[cPMB]t).MW.G. Eqn (1)
# The concentration of [tPMB]t is multiplied by two to account for its additional mass, being composed of two PMB molecules. Insertion of PMB into the acyl-LPS matrix to form cPMB is associated with changes in the phase state of LPS10 and is also likely associated with redistribution of mass towards the sensing surface11. These changes will manifest as an increase in sensitivity of the SPR binding response when clusters are formed and are included in Eqn (1) […]
# using a sensitivity coefficient (m). MW is the molecular weight of the injected analyte, in this case PMB (1203.48 Da). The constant, G, is a unit conversion factor that converts protein concentration (g/L) to response (RU) and is typically 100 (units, RU.L/g). […]
# [3] = test system: E. coli WT; type: cell-based
# Experimental: as §1
SMILES,"MIC ([1]; LB + 0.0005% tween-80, overnight 37 °C) [µM]",antibacterial activity ([1]; highest tested concentration),"k5 ([2]; dimerization of nPMBL, global fit, max 625 nM) [M⁻¹ s⁻¹]","k3 ([2]; membrane insertion / nPMBL formation, global fit, max 625 nM) [M⁻¹ s⁻¹]","k4 ([2]; nPMBL dissociation, global fit, max 625 nM) [s⁻¹]",relative fraction of transition state ([2]; peer review file) [%],residence time = 1/k4 ([2]; stability of nucleates (nPMBL)) [s],antibacterial activity [3],"MIC ([3]; LB + 0.0005% tween-80, OD600 0.0005, overnight static growth 37 °C, complete growth inhibition) [µM]"
CC[C@H](C)CCCCC(=O)N[C@@H](CCN)C(=O)N[C@H](C(=O)N[C@@H](CCN)C(=O)N[C@H]1CCNC(=O)[C@H]([C@@H](C)O)NC(=O)[C@H](CCN)NC(=O)[C@H](CCN)NC(=O)[C@H](CC(C)C)NC(=O)[C@@H](Cc2ccccc2)NC(=O)[C@H](CCN)NC1=O)[C@@H](C)O [Polymyxin B] (X1-[Dab]T[Dab][Dab][Dab][dF]L[Dab][Dab]T; lactam 4-C (inferred); N-terminus assumed),>40,no activity at the highest tested concentration,20.75,2233,0.00488,< 0.1,205,–,–
CC(C)C[C@@H]1NC(=O)[C@@H](Cc2ccccc2)NC(=O)[C@H](CCN)NC(=O)[C@@H](NC(=O)[C@H](CCN)NC(=O)[C@@H](N)[C@@H](C)O)CCNC(=O)[C@H]([C@@H](C)O)NC(=O)[C@H](CCN)NC(=O)[C@H](CCN)NC1=O [PMBN] (H-T[Dab][Dab][Dab][dF]L[Dab][Dab]T; lactam 3-C),–,–,–,–,–,–,–,lacks the antibacterial activity of polymyxin B,>40
